Values of other authors, collected in patent US20090291104A1 (Florida Atlantic University, priority 2005, published 2009).

Test system: K+ channels
Settings: cited from earlier work

In the case of “N--DPCYEVCLQHTGNV-KACEEACQ (NDPCYEVCLQHTGNVKACEEACQ; Opisthacanthus madagascarienses) [OmTx3]”, the “rank as K+ channel blocker within the Om-toxin set” value is given as “best blocker of the Om-toxin set”.
